We go through 1 molecule from patent US5166213A, “4-pyridyl substituted-1,3-dioxane compounds” (Imperial Chemical Industries PLC, priority 1988, dated 1992).

The target in one data set is T1, thromboxane receptor (Homo sapiens, UniProt P21731).
T1 construct: aggregating human, citrated, platelet-rich plasma; from tissue; host or cells: human platelets (citrated platelet-rich plasma)
T1 sequence (P21731 1-343): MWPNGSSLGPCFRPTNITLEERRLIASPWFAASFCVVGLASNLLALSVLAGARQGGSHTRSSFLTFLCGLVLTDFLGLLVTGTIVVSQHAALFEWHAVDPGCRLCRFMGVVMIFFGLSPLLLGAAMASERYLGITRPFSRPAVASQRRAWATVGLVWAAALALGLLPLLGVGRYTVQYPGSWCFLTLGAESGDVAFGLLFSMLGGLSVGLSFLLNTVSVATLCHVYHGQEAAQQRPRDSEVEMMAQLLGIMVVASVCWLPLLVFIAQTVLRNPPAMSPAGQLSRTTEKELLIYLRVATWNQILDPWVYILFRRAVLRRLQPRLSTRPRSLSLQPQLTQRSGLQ
The data set can be described thus: test (b): blood platelet aggregation, antagonism of U46619 in citrated platelet-rich plasma. The note with it: Example 2, unit inferred. Format: cell-based. The source says:
(b) a blood platelet aggregation test based on that described by Born (Nature, 1962, 194, 927-929) and involving:
(i) aggregating human, citrated, platelet-rich plasma by addition of the TXA2 mimetic agent U46619 so that a dose-response curve is generated;
(ii) generating a dose-response curve for U46619 stimulated platelet aggregation in the presence of increasing amounts of test compound (generally in the range 10^-5 M to 10^-10 M); and
(iii) calculating a KB value indicating potency of TXA2 antagonism for the test compound, averaged over several concentrations, from the calculated 50% response value for U46619 aggregation in the presence and absence of test compound; or […]

Data set [1] concerns the target T2, TXA2 synthase (Homo sapiens, UniProt P24557).
T2 construct: using a human platelet microsomal TXA2 synthase preparation; from tissue; host or cells: human platelet microsomes
T2 sequence (P24557 1-533): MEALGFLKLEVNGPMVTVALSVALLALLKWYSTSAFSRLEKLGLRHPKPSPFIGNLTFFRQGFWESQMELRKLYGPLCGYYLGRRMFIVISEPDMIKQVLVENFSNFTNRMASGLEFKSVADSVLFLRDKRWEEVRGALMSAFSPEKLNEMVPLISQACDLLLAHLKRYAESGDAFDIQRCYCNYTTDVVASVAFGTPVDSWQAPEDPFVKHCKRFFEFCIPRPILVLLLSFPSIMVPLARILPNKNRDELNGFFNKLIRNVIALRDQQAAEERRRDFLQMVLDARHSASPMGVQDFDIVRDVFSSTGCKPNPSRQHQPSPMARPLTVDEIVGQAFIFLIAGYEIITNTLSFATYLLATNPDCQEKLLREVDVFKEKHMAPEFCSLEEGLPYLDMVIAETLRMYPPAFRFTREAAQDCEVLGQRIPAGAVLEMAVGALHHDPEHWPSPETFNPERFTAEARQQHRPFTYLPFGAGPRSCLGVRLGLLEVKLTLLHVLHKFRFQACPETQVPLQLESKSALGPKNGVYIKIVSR
The data set can be described thus: test (e): in vitro inhibition of human platelet microsomal TXA2 synthase (conversion of [1-^14 C]arachidonic acid to TXB2). Format: biochemical.

The test system of data set [2] is TXA2 synthase. The data set can be described thus: test (f): TXB2 production in blood samples from dosed rats. Format: in vivo, rat. Particulars: oral dose of 25 mg/kg, up to 5 hours. Here is the method: The samples treated with anti-coagulant are first incubated at 37° C. with collagen (at about 100 micro M), then mixed with the cyclooxygenase inhibitor indomethacin (at about 10^-3 M), centrifuged and the level of the TXA2 metabolite, TXB2, determined by a standard radioimmunoassay technique. By comparison of the amount of TXB2 present in the plasma from animals dosed with test compound with that in the plasma of a control group dosed with placebo, the TXA2 synthase inhibitory properties may be assessed.

Data set [3] is described as follows: observable signs of toxicity in test (f), rats. Format: in vivo, rat. The note with it: oral dose of 25 mg/kg.

Molecule `O=C(O)CC/C=C\C[C@@H]1CO[C@H](c2ccccc2Cl)O[C@@H]1c1cccnc1` (relative stereo) [Example 2, 4(Z)-6-[(2,4,5-cis)-2-(2-chlorophenyl)-4-(3-pyridyl)-1,3-dioxan-5-yl]hexenoic acid] displayed an antagonist equilibrium constant (Kb) at thromboxane receptor of 650 nM. The molecule further had an IC50 against TXA2 synthase [1] of 48 nM. Moreover, the “inhibition of TXB2 production” value in the data set with TXA2 synthase [2] is reported as “essentially complete inhibition of TXB2 production”. In data set [3], the “observable signs of toxicity” value is “without any observable signs of toxicity”.
